In patent US11760775B2, “Steroids and protein-conjugates thereof” (Regeneron Pharmaceuticals, Inc., priority 2016, dated 2023):
Like-named read-outs stand apart in the source and are kept apart here.

Assays:
[1] = biological target: Glucocorticoid Receptor (GR) (Homo sapiens (Human), UniProt P04150); assay: LanthaScreen TR-FRET GR Competitive Binding Assay (cell free)
[2] = system: GR activation in 293/PRLR/GRE-Luc cells (HEK293/9xUAS-Luc2P/pBind-GR/PRLR-HA high cells); assay: GR co-activator luciferase reporter cell based assay in 293/PRLR/GRE-Luc cells; set-up: species or system human; conditions: for Emax / EC50: Homo sapiens; for Emax: HEK293, read-out: Activation (fold activation relative to Budesonide) in HEK293/9xUAS-Luc2P/pBind-GR/PRLR-HA high cells; for HEK293/9xUAS-Luc2P/pBind-GR/PRLR-HA high cells activation relative to Budesonide: fold activation vs Budesonide
From the text: Bioassays described herein were used to assess the efficacy of free steroids and anti-PRLR-ncADCs. In one example, the bioassay assessed the activity of steroids, after internalization of a site-specific anti-PRLR-GC steroid ADC into cells, to bind to pBIND-GR and subsequent luciferase reporter activation. […] Then such stable cell line was further transfected with a chimeric receptor consisting of a GR ligand binding domain fused to the yeast Gal4 DNA binding domain (pBind-GR, Promega Cat #E1581), and a Gal4 upstream activator sequence (9×Gal4UAS-Luc2P) that drives luciferase gene expression.
(§1) For this assay, 20,000 cells were seeded in 96-well plates in media containing DMEM supplemented with 10% FBS and pencillin/streptomycin (complete media) and grown overnight at 37° C. in 5% CO2. […] Luciferase activity was determined by addition of OneGlo™ reagent (Promega, Cat #E6130) and relative light units (RLUs) were measured on a Victor luminometer (Perkin Elmer). The EC50 values were determined from a four-parameter logistic equation over a 10 point response curve using GraphPad Prism.
as §1, with “One-Glo™” for “OneGlo™”, “10-point” for “10 point”, “Prism. […] Minimal activation in this assay is defined as less than 10% of the maximal activation measured with the free payload.” for “Prism.”

[3] = HEK293, 72 hours of incubation, read-out: HEK293/9xUAS-Luc2P/pBind-GR/PRLR-HA high cells EC50
[4] = HEK293, read-out: HEK293/9xUAS-Luc2P/pBind-GR/PRLR-HA high cells EC50

Chain of Glucocorticoid Receptor (GR) (P04150 524-758): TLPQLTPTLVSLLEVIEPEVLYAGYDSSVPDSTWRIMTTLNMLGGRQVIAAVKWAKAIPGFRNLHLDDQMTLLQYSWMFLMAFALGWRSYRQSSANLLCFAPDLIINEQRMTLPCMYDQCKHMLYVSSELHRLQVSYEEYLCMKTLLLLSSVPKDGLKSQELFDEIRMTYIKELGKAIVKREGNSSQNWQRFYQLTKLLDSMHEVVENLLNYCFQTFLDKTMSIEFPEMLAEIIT

SMILES	IC50 [1]	Emax ([2]; 72 hours of incubation)	EC50 [2, 3]	EC50 [2, 4]	HEK293/9xUAS-Luc2P/pBind-GR/PRLR-HA high cells activation relative to Budesonide [2]	Fold Activation ([2]; 293/PRLR/GRE-Luc cells, 72 hours)	EC50 ([2]; HEK293, 72 h, read-out: EC50)
CCC[C@H]1O[C@@H]2C[C@H]3[C@@H]4CCC5=CC(=O)C=C[C@]5(C)[C@H]4[C@@H](O)C[C@]3(C)[C@]2(C(=O)COc2ccc(N)c(F)c2)O1 [11-6 S, (1S,2S,4R,6S,8S,9S,11S,12S,13R)-8-[2-(4-Amino-3-fluorophenoxy)acetyl]-11-hydroxyl-9,13-dimethyl-6-propyl-5,7-dioxapentacyclo[10.8.0.0^2,90.0^4,80.0^13,18]icosa-14,17-dien-16-one]	10 to 100 nM	> 75%	< 10 nM	–	–	–	–
CCC(=O)O[C@]1(C(=O)CNC)[C@@H](C)C[C@H]2[C@@H]3C[C@H](F)C4=CC(=O)C=C[C@]4(C)[C@@]3(F)[C@@H](O)C[C@@]21C [Compound 14-2, (1R,2S,8S,10S,11S,13S,14R,15S,17S)-1,8-difluoro-17-hydroxy-2,13,15-trimethyl-14-[2-(methylamino)acetyl]-5-oxotetracyclo[8.7.0.0^2,70.0^11,15]heptadeca-3,6-dien-14-yl propanoate]	< 10 nM	< 20%	> 100 nM	–	–	–	–
CCCC1O[C@@H]2C[C@H]3[C@@H]4CCC5=CC(=O)C=C[C@]5(C)[C@@]4(F)[C@@H](O)C[C@]3(C)[C@]2(C(=O)CN)O1 (stereo partly drawn) [Compound 4h, (1S,2S,4R,8S,9S,11S,12R,13S)-8-(2-Aminoacetyl)-12-fluoro-11-hydroxy-9,13-dimethyl-6-propyl-5,7-dioxapentacyclo[10.8.0.0^2,9.0^4,8.0^13,18]icosa-14,17-dien-16-one]	10 to 50 nM	–	–	< 10 nM	Full	–	–
C[C@]12C=CC(=O)C=C1CC[C@@H]1[C@@H]2[C@@H](O)C[C@@]2(C)[C@H]1C[C@H]1O[C@H](c3ccc(N)cc3)O[C@]12C(=O)CO [7-1 S, (1S,2S,4R,6S,8S,9S,11S,12S,13R)-6-(4 Aminophenyl)-11-hydroxy-8-(2-hydroxyacetyl)-9,13-dimethyl-5,7-dioxapentacyclo[10.8.0.0^2,90.0^4,80.0^13,18]icosa-14,17-dien-16-one]	< 10 nM	20 to 75%	> 100 nM	–	–	–	–
CC(C)C(=O)OCC(=O)[C@@]12OC(Cc3ccc(N)cc3)O[C@@H]1C[C@H]1[C@@H]3CCC4=CC(=O)C=C[C@]4(C)[C@H]3[C@@H](O)C[C@@]12C (stereo partly drawn) [8-2 R/S, 2[(1S,2S,4R,8S,9S,11S,12S,13R)-6[(4-Aminophenyl)methyl]-11-hydroxy-9,13-dimethyl-16-oxo-5,7-dioxapentacyclo[10.8.0.0^2,90.0^4,80.0^13,18]icosa-14,17-dien-8-yl]-2-oxoethyl 2-methylpropanoate]	< 10 nM	< 20%	> 100 nM	–	–	–	–
[2H]c1c([2H])c(OCC(=O)[C@@]23OC(CCC)O[C@@H]2C[C@H]2[C@@H]4C[C@H](F)C5=CC(=O)C=C[C@]5(C)[C@@]4(F)[C@@H](O)C[C@@]23C)c([2H])c([2H])c1N (stereo partly drawn) [Compound 6-ID, (1S,2S,4R,8S,9S,11S,12R,13S,19S)-8-{2-[4-Amino(2,3,5,6-^2H4)phenoxy]acetyl}-12,19-difluoro-11-hydroxy-9,13-dimethyl-6-propyl-5,7-dioxapentacyclo[10.8.0.0^2,9.0^4,8.0^13,18]icosa-14,17-dien-16-one]	< 10 nM	–	–	< 10 nM	Full	–	–
CCC[C@@H]1O[C@@H]2C[C@H]3[C@@H]4CCC5=CC(=O)C=C[C@]5(C)[C@H]4[C@@H](O)C[C@]3(C)[C@]2(C(=O)COc2ccc(F)cc2)O1 [11-10 R/S, (1S,2S,4R,6R,8S,9S,11S,12S,13R)-8-[2-(4-Fluorophenoxy)acetyl]-11-hydroxy-9,13-dimethyl-6-propyl-5,7-dioxapentacyclo[10.8.0.0^2,90.0^4,80.0^13,18]icosa-14,17-dien-16-one]	< 10 nM	< 20%	> 100 nM	–	–	–	–
CC(C)C(=O)OCC(=O)[C@@]12OC(CCN)O[C@@H]1C[C@H]1[C@@H]3CCC4=CC(=O)C=C[C@]4(C)[C@H]3[C@@H](O)C[C@@]12C (stereo partly drawn) [8-3 R/S, 2[(1S,2S,4R,8S,9S,11S,12S,13R)-6-(2-Aminoethyl)-11-hydroxy-9,13-dimethyl-16-oxo-5,7-dioxapentacyclo[10.8.0.0^2,90.0^4,8. 0^13,18]icosa-14,17-dien-8-yl]-2-oxoethyl 2-methylpropanoate]	< 10 nM	< 20%	> 100 nM	–	–	–	–
C[C@]12C=CC(=O)C=C1CC[C@@H]1[C@@H]2[C@@H](O)C[C@@]2(C)[C@H]1C[C@H]1OC(Cc3ccc(N)cc3)O[C@]12C(=O)CO (stereo partly drawn) [7-2 R/S, (1S,2S,4R,8S,9S,11S,12S,13R)-6[(4-Aminophenyl)methyl]-11-hydroxy-8-(2-hydroxyacetyl)-9,13-dimethyl-5,7-dioxapentacyclo[10.8.0.0^2,90.0^4,80.0^13,18]icosa-14,17-dien-16-one]	< 10 nM	< 20%	< 10 nM	–	–	Full	10 to 100 nM
CCC[C@H]1O[C@@H]2C[C@H]3[C@@H]4C[C@H](F)C5=CC(=O)C=C[C@]5(C)[C@@]4(F)[C@@H](O)C[C@]3(C)[C@]2(C(=O)COc2ccc(N)cc2)O1 [Compound S-6-I, (1S,2S,4R,6S,8S,9S,11S,12R,13S,19S)-8-[2-(4-Aminophenoxy)acetyl]-12,19-difluoro-11-hydroxy-9,13-dimethyl-6-propyl-5,7-dioxapentacyclo[10.8.0.0^2,90.0^4,80.0^13,18]icosa-14,17-dien-16-one]	< 10 nM	–	–	< 10 nM	Full	–	–
CCCC1O[C@@H]2C[C@H]3[C@@H]4C[C@H](F)C5=CC(=O)C=C[C@]5(C)[C@@]4(F)[C@@H](O)C[C@]3(C)[C@]2(C(=O)COc2ccc(N)cc2)O1 (stereo partly drawn) [11-12 R/S, (1S,2S,4R,8S,9S,11S,12R,13S,19S)-8-[2-(4-Aminophenoxy)acetyl]-12,19-difluoro-11-hydroxy-9,13-dimethyl-6-propyl-5,7-dioxapentacyclo[10.8.0.0^2,90.0^4,80.0^13,18]icosa-14,17-dien-16-one]	10 to 100 nM	> 75%	< 10 nM	–	–	–	–
CCCC1O[C@@H]2C[C@H]3[C@@H]4CCC5=CC(=O)C=C[C@]5(C)[C@H]4[C@@H](O)C[C@]3(C)[C@]2(C(=O)CN(C)C)O1 (stereo partly drawn) [11-3 R/S, (1S,2S,4R,8S,9S,11S,12S,13R)-8-[2-(Dimethylamino)acetyl]-11-hydroxy-9,13-dimethyl-6-propyl-5,7-dioxapentacyclo[10.8.0.0^2,90.0^4,80.0^13,18]icosa-14,17-dien-16-one]	< 10 nM	20 to 75%	10 to 100 nM	–	–	–	–
CCCC1O[C@@H]2C[C@H]3[C@@H]4CCC5=CC(=O)C=C[C@]5(C)[C@H]4[C@@H](O)C[C@]3(C)[C@]2(C(=O)COc2ccc(N)cc2)O1 (stereo partly drawn) [11-5 R/S, (1S,2S,4R,8S,9S,11S,12S,13R)-8-[2-(4-Aminophenoxy)acetyl]-11-hydroxy-9,13-dimethyl-6-propyl-5,7-dioxapentacyclo[10.8.00^2,90.0^4,80.0^13,18]icosa-14,17-dien-16-one]	10 to 100 nM	> 75%	< 10 nM	–	–	–	–
